Measurements from US7906110B2, “Rapid preparation of stem cell matrices for use in tissue and organ treatment and repair” (University of Pittsburgh—of the Commonwealth System of …, priority 2001, dated 2011).

Test system: spontaneous contractile activity of MDSC/SIS preparations
Assay: Pharmacological evaluation on spontaneous contractile activity of MDSC/SIS
Type: cell-based
Details: for effect on spontaneous contractile activity in MDSC/SIS specimens: added to bath: carbachol 10 and 20 μM, KCI 7%, 1 M, EGTA 200 μM in Ca++-free Krebs
Experimental: Twenty five preparations of MDSC/SIS and twenty five control preparations of SIS only were incubated at 37° C. for 1, 4, or 8 weeks. The specimens were then mounted in a thermally controlled bath of 5 ml at 37° C. in Krebs solution (mmol/L: NaCl, 113; KCI, 4.7; CaCl2,1.25; MgSO4,1.2; NaHCO3, 25; KH2PO4, 1.2 and glucose, 11.5) with a mixture of 95% 02 and 5% C02. The frequency and amplitude of isometric contractions were measured with strain gauge transducers coupled with a TBM4 strain gauge amplifier and recorded on a computer using a data acquisition program (Windaq, DATAQ Instruments Inc. Akron, Ohio). After 60 minutes of equilibration, electrical field stimuli (10 Hz, 150 volt, 0.5 ms, 60 sec) were applied in the bath. Pharmacological evaluations were performed with succinylcholine (S-Chol), (4, 10 and 20 μM); carbachol (10 and 20 μM); KCI, (7%, 1 M); Ca^++-free Krebs solution with EGTA (200 μM); or distilled water, were each added to the bath sequentially at 30 minute intervals. The frequency, amplitude, and pattern of contraction of the specimens were compared among the different groups.

C[N+](C)(C)CCOC(N)=O [carbachol]
effect on spontaneous contractile activity in MDSC/SIS specimens: did not alter

O=C(O)CN(CCOCCOCCN(CC(=O)O)CC(=O)O)CC(=O)O [EGTA]
effect on spontaneous contractile activity in MDSC/SIS specimens: blocked

C[N+](C)(C)CCOC(=O)CCC(=O)OCC[N+](C)(C)C [succinylcholine]
effect on frequency, amplitude or pattern of spontaneous activity (4 μM, any of the preparations): did not alter
frequency and amplitude of spontaneous contractile activity decreased (4-week MDSC/SIS, 10 μM): 2 of 5
frequency and amplitude of spontaneous contractile activity decreased (4-week MDSC/SIS, 20 μM): 5 of 5
spontaneous contractile activity blocked (4-week MDSC/SIS, 20 μM): 2 of 5
frequency and amplitude of spontaneous contractile activity decreased (8-week MDSC/SIS, 10 μM): 8 of 8
effect on frequency and amplitude of spontaneous contractile activity (8-week MDSC/SIS, 20 μM): decreased
spontaneous contractile activity blocked (8-week MDSC/SIS, 20 μM): 5 of 8
reversibility of suppressant effects (after washout of the drug): reversible

[Cl-].[K+] [KCI]
effect on spontaneous contractile activity in MDSC/SIS specimens: did not alter
